The supplement of paper PMC7661543
± gives the standard deviation of the averaged measurements.

What was measured:
Assay in all cases: relative cell number vs DMSO control (72 h) (% of DMSO); higher = less growth inhibition (more cells)
Details in all cases: sgRNA knockout: sgNT
BT-20 = system: BT-20
Protocol: (§1)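 QMAP-Seq: a pool of 5 breast cancer cell lines (ZR-75-1, SKBR3, HCC-38, MDA-MB-231, BT-20), each carrying 12 doxycycline-inducible Cas9 sgRNA perturbations (11 knockouts plus non-targeting sgNT), was treated with compounds for 72 h at four 10-fold doses (10 nM-10 uM or 1 nM-1 uM range). Barcodes were amplified and sequenced, and cell number was interpolated from 293T spike-in standard curves. The result is expressed as % of the median of DMSO wells. Two biological replicates.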

ZR-75-1 = system: ZR-75-1
Protocol: as §1

MDA-MB-231 = system: MDA-MB-231
Protocol: as §1

HCC-38 = system: HCC-38
Protocol: as §1

SKBR3 = system: SKBR3
Protocol: as §1

SMILES	relative cell number (BT-20; 10 nM)	relative cell number (BT-20; 100 nM)	relative cell number (BT-20; 1000 nM)	relative cell number (BT-20; 10000 nM)	relative cell number (ZR-75-1; 10 nM)	relative cell number (ZR-75-1; 100 nM)	relative cell number (ZR-75-1; 1000 nM)	relative cell number (ZR-75-1; 10000 nM)	relative cell number (MDA-MB-231; 10 nM)	relative cell number (MDA-MB-231; 100 nM)	relative cell number (MDA-MB-231; 1000 nM)	relative cell number (MDA-MB-231; 10000 nM)	relative cell number (HCC-38; 10 nM)	relative cell number (HCC-38; 100 nM)	relative cell number (HCC-38; 1000 nM)	relative cell number (HCC-38; 10000 nM)	relative cell number (SKBR3; 10 nM)	relative cell number (SKBR3; 100 nM)	relative cell number (SKBR3; 1000 nM)	relative cell number (SKBR3; 10000 nM)
CC(C)(C)c1cnc(CSc2cnc(NC(=O)C3CCNCC3)s2)o1 [SNS032]	116 ± 11	79.3 ± 15	19.7 ± 0.32	34.4 ± 1.1	99.8 ± 5	85.6 ± 9.4	9.44 ± 2.4	28.7 ± 4	106 ± 3.3	75.8 ± 13	10 ± 2.3	12 ± 1.4	100 ± 19	81.3 ± 2.6	17.3 ± 1.6	27.8 ± 0.81	72.7 ± 6	89.5 ± 12	7.96 ± 5	14.9 ± 1.1
CC(=O)Nc1nc(C)c(S(=O)(=O)Nc2ccc(C(O)(C(F)(F)F)C(F)(F)F)cc2)s1 [SR1001]	111 ± 12	92.4 ± 17	97.8 ± 18	116 ± 32	108 ± 41	80.6 ± 15	82.9 ± 26	113 ± 64	117 ± 5.5	123 ± 15	106 ± 12	118 ± 29	91.5 ± 2.2	105 ± 5.6	111.7 ± 0.68	109 ± 16	104 ± 4.2	87.5 ± 13	120 ± 17	121 ± 3.7
CC(C)(C)c1ccc(S(=O)(=O)NCc2ccc(C(=O)Nc3cccnc3)cc2)cc1 [STF31]	101 ± 4.2	96.7 ± 4.5	85.6 ± 20	72.8 ± 18	112 ± 27	92.7 ± 8	50.2 ± 2	63.1 ± 33	110 ± 16	93.4 ± 15	61.7 ± 12	27.3 ± 3.5	90.7 ± 9.9	82.5 ± 12	93.2 ± 7.9	76.6 ± 10	97.4 ± 8.6	83.52 ± 0.49	74.8 ± 10	44.1 ± 5.7
CN1CCN(CCOc2cc(OC3CCOCC3)c3c(Nc4c(Cl)ccc5c4OCO5)ncnc3c2)CC1 [Saracatinib]	90.5 ± 32	85.8 ± 15	73.7 ± 11	48.3 ± 18	77.5 ± 1.3	97.6 ± 53	92.6 ± 28	48.2 ± 22	84.1 ± 37	70.3 ± 5.9	64.1 ± 5.6	33.9 ± 17	80.8 ± 18	87 ± 10	78.8 ± 13	70.5 ± 12	85.4 ± 45	95.9 ± 16	62.9 ± 18	32.6 ± 8
Cn1cnc2c(F)c(Nc3ccc(Br)cc3Cl)c(C(=O)NOCCO)cc21 [Selumetinib]	80.6 ± 8.9	67 ± 3.8	99.2 ± 31	80.9 ± 20	71 ± 10	67 ± 25	67.5 ± 21	59.2 ± 5.8	88.9 ± 25	74.2 ± 37	96.3 ± 23	57.1 ± 36	96.6 ± 6.1	85.3 ± 4.4	84.4 ± 8.8	92.3 ± 3.6	97.8 ± 51	90.1 ± 60	103 ± 8.6	73.3 ± 5.1
CC(C)[C@H](O)C(=O)N[C@@H](C)C(=O)N[C@@H]1C(=O)N(C)CCc2ccccc21 [Semagacestat]	92.3 ± 13	86.5 ± 12	113 ± 9.9	113 ± 23	112 ± 22	92 ± 28	89.7 ± 24	132 ± 19	126 ± 5.3	83.5 ± 15	91.7 ± 11	96.9 ± 12	107 ± 6.6	107 ± 4.2	118 ± 3.2	84.4 ± 1.2	112 ± 42	83.1 ± 31	72.2 ± 6.8	107 ± 42
